Publication PMC4579554, “Isolation and characterisation of transport-defective substrate-binding mutants of the tetracycline antiporter TetA(B)” (Biochimica et Biophysica Acta, 2015)

How the values were obtained:
[1] = target: TetA(B)-Δ394–401-Thrombin-His12 (Escherichia coli, UniProt P02980, DEL195-199/DEL203-207); assay: biochemical
Text: isothermal titration calorimetry on TetA(B)-Δ394–401-Thrombin-His12

[2] = target: T1, TetA(B)-Δ394–401-Thrombin-His12 (Escherichia coli, UniProt P02980, DEL394-401); assay: isothermal titration calorimetry; type: binding
T1 construct: C-terminal truncation of residues 394-401, thrombin site and His12 tag (also printed as His10) kept, pET21b, expressed in E. coli C43, purified in LMNG

TetA(B)-His10 = target: T2, TetA(B)-His10 (Escherichia coli, UniProt P02980); assay: isothermal titration calorimetry; type: binding
T2 construct: full length (401 residues), C-terminal His10 tag kept, pET21b, expressed in E. coli C43, purified in LMNG
Text: isothermal titration calorimetry on TetA(B)-His10

Chain of TetA(B)-Δ394–401-Thrombin-His12 (Escherichia coli, UniProt P02980, DEL195-199/DEL203-207) (P02980 1-393, stated change not applied): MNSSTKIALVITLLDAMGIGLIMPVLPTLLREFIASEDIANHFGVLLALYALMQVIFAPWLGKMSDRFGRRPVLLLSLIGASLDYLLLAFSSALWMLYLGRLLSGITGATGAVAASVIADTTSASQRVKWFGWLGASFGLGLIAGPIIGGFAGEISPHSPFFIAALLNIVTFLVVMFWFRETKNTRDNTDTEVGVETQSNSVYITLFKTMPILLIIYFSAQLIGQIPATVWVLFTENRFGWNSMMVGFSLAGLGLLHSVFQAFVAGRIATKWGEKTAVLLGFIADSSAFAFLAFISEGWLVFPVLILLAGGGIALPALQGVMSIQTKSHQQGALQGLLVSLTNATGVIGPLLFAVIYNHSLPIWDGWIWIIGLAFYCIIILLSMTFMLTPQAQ
T1 sequence (P02980 1-393, stated change not applied): as above
T2 sequence (P02980 whole entry): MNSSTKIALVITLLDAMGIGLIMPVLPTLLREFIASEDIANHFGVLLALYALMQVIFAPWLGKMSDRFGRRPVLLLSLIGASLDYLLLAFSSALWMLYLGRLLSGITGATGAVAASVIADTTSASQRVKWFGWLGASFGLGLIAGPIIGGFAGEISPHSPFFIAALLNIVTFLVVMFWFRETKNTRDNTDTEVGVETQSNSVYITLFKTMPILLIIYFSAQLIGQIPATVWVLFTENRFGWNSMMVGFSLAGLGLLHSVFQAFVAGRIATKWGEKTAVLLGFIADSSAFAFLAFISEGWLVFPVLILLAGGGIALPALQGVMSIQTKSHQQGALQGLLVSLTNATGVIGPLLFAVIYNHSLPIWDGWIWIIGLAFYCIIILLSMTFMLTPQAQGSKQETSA

`CN(C)[C@@H]1C(=O)C(C(N)=O)=C(O)[C@@]2(O)C(=O)C3=C(O)c4c(O)cccc4[C@@](C)(O)[C@H]3C[C@@H]12` [tetracycline] showed a Kd [1] of 17.5 ± 0.5 µM, a Kd [2] of 10 ± 2 µM and a Kd (TetA(B)-His10) of 7.3 ± 0.5 µM.
